Test results as given in patent publication US9169252B2 (BRISTOL-MYERS SQUIBB COMPANY, priority 2014, dated 2015).
Read-outs that look alike come from different tables or passages of the source.

How the values were obtained:
IRAK4 = IRAK4 (Homo sapiens (Human), UniProt Q9NWZ3); assay: IRAK4 Inhibition Assay; type: biochemical; details: ATP 500 μM, read-out: IRAK4 IC50
In short: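 IRAK4 combined with fluorescent substrate and compounds, reacted 60 min at room temperature, stopped with 35 mM EDTA. Substrate and phosphorylated product separated electrophoretically on a Caliper LabChip 3000 mobility-shift reader.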

[1] = test system: TLR2 induced IL-6 in peripheral blood mononuclear cells (PBMCs); assay: PBMC TLR2 Induced IL-6 Assay; type: cell-based, human; details: Homo sapiens, PBMC, IL-6 by ELISA; for EC50: read-out: Cell EC50; for IC50: read-out: Cell IC50
In short: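 Lipoteichoic acid at 10 µg/ml served as TLR2 stimulus for 5 hours, following a 30-minute compound pretreatment at 37° C. Cells were Ficoll-isolated human PBMCs, 250000 cells/well, cultured in RPMI plus 10% heat-inactivated FCS.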

[2] = PBMC TLR2 Induced IL-6 Assay, lipoteichoic acid stimulation
[3] = human PBMCs, lipoteichoic acid stimulated

Chain of IRAK4 (Q9NWZ3 whole entry, species assumed): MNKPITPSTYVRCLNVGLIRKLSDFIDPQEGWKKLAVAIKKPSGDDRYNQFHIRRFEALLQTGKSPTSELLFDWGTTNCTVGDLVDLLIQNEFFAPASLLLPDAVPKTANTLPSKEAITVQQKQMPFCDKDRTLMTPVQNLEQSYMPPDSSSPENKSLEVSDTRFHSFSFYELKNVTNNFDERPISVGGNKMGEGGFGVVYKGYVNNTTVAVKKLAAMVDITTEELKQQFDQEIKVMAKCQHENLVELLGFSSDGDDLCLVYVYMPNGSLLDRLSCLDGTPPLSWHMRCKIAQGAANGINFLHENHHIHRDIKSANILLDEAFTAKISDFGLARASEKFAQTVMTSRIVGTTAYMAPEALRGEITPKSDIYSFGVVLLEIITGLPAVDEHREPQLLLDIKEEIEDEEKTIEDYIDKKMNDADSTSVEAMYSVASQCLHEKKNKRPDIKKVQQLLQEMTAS

Structure (SMILES)	IC50 (IRAK4; IRAK4 Inhibition Assay)	EC50 [1, 2]	IC50 (IRAK4; IRAK4 0.6 nM)	IC50 [1, 3]	IC50 [1, 2]	EC50 [1, 3]
CC(=O)Nc1cnc2c(ccn2-c2cc(NC(C)C)c(C(=O)NC[C@@H](F)C(C)(C)O)cn2)c1 [Example 45, (R)-6-(5-acetamido-1H-pyrrolo[2,3-b]pyridin-1-yl)-N-(2-fluoro-3-hydroxy-3-methylbutyl)-4-(isopropylamino)nicotinamide]	0.0232 µM	0.148 µM	–	–	–	–
CC(C)(O)[C@H]1CC[C@H](Nc2cc(-n3ncc4cc(Cl)cnc43)ncc2C(=O)NC[C@@H](F)C(C)(C)O)C1 [Example 628]	–	–	0.0033 µM	0.148 µM	–	–
CC(C)(O)[C@H](F)CNC(=O)c1cnc(-n2ncc3cc(C#N)cnc32)cc1NC1COCC1(F)F (some centres unmarked) [Example 554]	–	–	0.0055 µM	0.37 µM	–	–
CC(C)(O)[C@H](F)CNC(=O)c1cnc(-n2ncc3cc(C#N)cnc32)cc1N[C@@H]1C[C@H]1CO (single isomer, unassigned) [Example 642]	–	–	0.0048 µM	0.197 µM	–	–
CNC(=O)[C@H]1CC[C@H](NC(=O)c2cnc(-n3ncc4cc(C#N)cnc43)cc2N[C@@H](C)CF)CC1 [Example 122, 6-(5-cyano-1H-pyrazolo[3,4-b]pyridin-1-yl)-4-(((S)-1-fluoropropan-2-yl)amino)-N-((1r,4S)-4-(methylcarbamoyl)cyclohexyl)nicotinamide]	0.016 µM	0.501 µM	–	–	–	–
CC(C)Nc1cc(-n2ccc3cc(C#N)cnc32)ncc1C(=O)N[C@@H]1CC=C(c2ccncc2)CC1 [Example 184, (S)-6-(5-Cyano-1H-pyrrolo[2,3-b]pyridin-1-yl)-4-(isopropylamino)-N-(4-(pyridin-4-yl)cyclohex-3-en-1-yl)nicotinamide]	0.0055 µM	0.436 µM	–	–	–	–
CC(C)(O)[C@H](F)CNC(=O)c1cnc(-n2ncc3cc(Cl)cnc32)cc1Nc1cnn(CCC#N)c1 [Example 377]	0.0027 µM	–	–	–	0.44 µM	–
CC(C)Nc1cc(-n2ncc3cc(C#N)cnc32)ncc1C(=O)N[C@H]1CC[C@H](NS(C)(=O)=O)CC1 [Example 166, 6-(5-cyano-1H-pyrazolo[3,4-b]pyridin-1-yl)-4-(isopropylamino)-N-((trans)-4-(methylsulfonamido)cyclohexyl)nicotinamide]	0.0046 µM	0.192 µM	–	–	–	–
CC(C)(O)[C@H](F)CNC(=O)c1cnc(-n2ncc3cc(C#N)cnc32)cc1N[C@H]1CCN(c2ncc(F)cn2)C1 [Example 533]	–	–	0.0103 µM	–	–	0.194 µM
CNS(=O)(=O)N1CCC(NC(=O)c2cnc(-n3ncc4cc(C#N)cnc43)cc2NC(C)C)CC1 [Example 313]	0.0147 µM	–	–	–	0.289 µM	–
CC(C)(O)[C@H](F)CNC(=O)c1cnc(-n2ncc3cc(C#N)cnc32)cc1NCC1(F)CCC1 [Example 581]	–	–	0.0084 µM	0.227 µM	–	–
CCNc1cc(-n2ncc3cc(C#N)cnc32)ncc1C(=O)NC[C@@H](F)C(C)(C)O [Example 568]	–	–	0.0089 µM	1.37 µM	–	0.661 µM
CC(C)(O)[C@H](F)CNC(=O)c1cnc(-n2ccc3cc(C#N)cnc32)cc1NC1CCC1 [Example 6, (R)-6-(5-cyano-1H-pyrrolo[2,3-b]pyridin-1-yl)-4-(cyclobutylamino)-N-(2-fluoro-3-hydroxy-3-methylbutyl) nicotinamide]	0.001 µM	0.243 µM	–	–	0.243 µM	–
CC(C)Nc1cc(-n2ncc3cc(C#N)cnc32)ncc1C(=O)NC1CCN(S(=O)(=O)NC(C)C)CC1 [Example 309]	0.0184 µM	–	–	–	0.207 µM	–
CC(C)n1cc(Nc2cc(-n3ncc4cc(Cl)cnc43)ncc2C(=O)NC[C@@H](F)C(C)(C)O)cn1 [Example 358]	0.0035 µM	–	–	–	0.257 µM	–
CC(C)(O)[C@H](F)CNC(=O)c1cnc(-n2ccc3cc(C#N)cnc32)cc1NCCN1CCOCC1 [Example 480]	–	–	0.004 µM	0.27 µM	–	0.17 µM
CC(C)(O)[C@H](F)CNC(=O)c1cnc(-n2ccc3cc(Cl)cnc32)cc1NC1CCOCC1 [Example 32, (R)-6-(5-chloro-1H-pyrrolo[2,3-b]pyridin-1-yl)-N-(2-fluoro-3-hydroxy-3-methylbutyl)-4-((tetrahydro-2H-pyran-4-yl)amino) nicotinamide]	0.0019 µM	0.075 µM	–	–	0.562 µM	–
